Measured values as given in patent US6781015B2, “Aminobenzophenones and photopolymerizable compositions including the same” (Albemarle Corporation, priority 1997, dated 2004).
“And” between values parts separate entries of the source, which are not always exact repeats. Identical values can stand only once.

System: Salmonella typhimurium tester strain TA98
Assay: Salmonella/Mammalian-Microsome Reverse Mutation Screening Assay (Ames Test)
Type: cell-based
Design: key to Background lawn: 1 = normal; 2 = slightly reduced; 3 = moderately reduced; 4 = extremely reduced; 5 = absent; 6 = obscured by precipitate; sp = slight precipitate; mp = moderate precipitate (requires hand count); hp = heavy precipitate (requires hand count)
Conditions: for Ames Test outcome (mutagenicity): tester strain TA98 in the presence of S9 mix
Method: Mutagenicity can be measured by a variety of assays. The most commonly used method is the Salmonella/Mammalian-Microsome Reverse Mutation Screening Assay (Ames Test), which commonly uses four or five strains of Salmonella bacteria to detect different types of mutations.
TMMK, TEMK and MEAB were evaluated for the ability to induce reverse mutations at the histidine locus in the genome of a specific Salmonella typhimurium tester strain in the presence of an exogenous metabolic activation system of mammalian microsomal enzymes derived from Aroclor™-induced rat liver (S9). The tester strain used in the mutagenicity assay was Salmonella typhimurium tester strain TA98 with added activation. The assay was conducted using eight doses of the test article, along with the appropriate vehicle and positive controls in the presence of S9 mix (S9 homogenate was purchased from Molecular Toxicology, Inc., Annapolis, Md. 21401, Batch 0646, 43.4 mg of protein per ml). Positive controls were also plated in the absence of S9 mix. All doses of test article, vehicle, and positive controls were plated in triplicate.
The test article TMMK was stored at room temperature. Acetone (CAS# 67-64-1, Fisher Scientific Co., Lot 961140) was used as the vehicle. At 20 mg per ml, which was the most concentrated stock solution which could be prepared, the test article formed a clear, light yellow solution. The test article remained a solution in all succeeding dilutions prepared for the mutagenicity assay. The maximum aliquot of acetone which can be used in the test system is 200 μl. Thus, the maximum concentration which could be tested was 4,000 μg per plate. The test article and vehicle controls were plated using a 200 μl plating aliquot. Positive control articles were plated using 50 μl plating aliquot.
The test article TEMK was stored at room temperature. Acetone (CAS# 67-64-1, Fisher Scientific Co., Lot 961140) was used as the vehicle. At 100 mg per ml, which was the most concentrated stock solution prepared, the test article formed a clear, yellow solution. The test article remained a solution in all succeeding dilutions prepared for the mutagenicity assay. The test article, vehicle controls and positive control articles were plated using a 50 μl plating aliquot.
The test article MEAB was stored at room temperature. Acetone (CAS#67-64-1, Fisher Scientific Co., Lot 961140) was used as the vehicle. At 25 mg per ml, which was the most concentrated stock solution prepared, the test article formed a clear, light yellow solution. The test article remained a solution in all succeeding dilutions prepared for the mutagenicity assay. The test article and vehicle controls were plated using a 200 μl plating aliquot. Positive control articles were plated using a 50 μl plating aliquot.
The data are presented as individual plate counts along with a mean and standard deviation.

[1] = TA98, rat liver S9, 3.33 μg/plate
[2] = TA98, rat liver S9, 3.33 μg/plate, plates 1-3
[3] = TA98, rat liver S9, 10.0 μg/plate
[4] = TA98, rat liver S9, 10.0 μg/plate, plates 1-3
[5] = TA98, rat liver S9, 33.3 μg/plate
[6] = TA98, rat liver S9, 33.3 μg/plate, plates 1-3
[7] = TA98, rat liver S9, 100 μg/plate
[8] = TA98, rat liver S9, 100 μg/plate, plates 1-3
[9] = TA98, rat liver S9, 333 μg/plate
[10] = TA98, rat liver S9, 333 μg/plate, plates 1-3
[11] = TA98, rat liver S9, 1000 μg/plate
[12] = TA98, rat liver S9, 1000 μg/plate, plates 1-3
[13] = TA98, rat liver S9, 3330 μg/plate
[14] = TA98, rat liver S9, 3330 μg/plate, plates 1-3
[15] = TA98, rat liver S9, 5000 μg/plate
[16] = TA98, rat liver S9, 5000 μg/plate, plates 1-3
[17] = Table 1, TA98, rat liver S9, 3.33 μg/plate
[18] = Table 1, TA98, rat liver S9, 10.0 μg/plate
[19] = Table 1, TA98, rat liver S9, 33.3 μg/plate
[20] = Table 1, TA98, rat liver S9, 100 μg/plate
[21] = Table 1, TA98, rat liver S9, 333 μg/plate
[22] = Table 1, TA98, rat liver S9, 1000 μg/plate
[23] = Table 1, TA98, rat liver S9, 3330 μg/plate
[24] = Table 1, TA98, rat liver S9, 5000 μg/plate
[25] = Table 2 summary, TA98, rat liver S9, 3.33 μg/plate
[26] = Table 2 summary, TA98, rat liver S9, 10.0 μg/plate
[27] = Table 2 summary, TA98, rat liver S9, 33.3 μg/plate
[28] = Table 2 summary, TA98, rat liver S9, 100 μg/plate
[29] = Table 2 summary, TA98, rat liver S9, 333 μg/plate
[30] = Table 2 summary, TA98, rat liver S9, 1000 μg/plate
[31] = Table 2 summary, TA98, rat liver S9, 3330 μg/plate
[32] = Table 2 summary, TA98, rat liver S9, 5000 μg/plate

| Compound | Mean revertants per plate [1] [revertants per plate] | Individual plate counts, revertants per plate [2] | Mean revertants per plate [3] [revertants per plate] | Individual plate counts, revertants per plate [4] | Mean revertants per plate [5] [revertants per plate] | Individual plate counts, revertants per plate [6] | Mean revertants per plate [7] [revertants per plate] | Individual plate counts, revertants per plate [8] | Mean revertants per plate [9] [revertants per plate] | Individual plate counts, revertants per plate [10] | Mean revertants per plate [11] [revertants per plate] | Individual plate counts, revertants per plate [12] | Mean revertants per plate [13] [revertants per plate] | Individual plate counts, revertants per plate [14] | Mean revertants per plate [15] [revertants per plate] | Individual plate counts, revertants per plate [16] | Background lawn [17] | Background lawn [18] | Background lawn [19] | Background lawn [20] | further results |
| --- | --- | --- | --- | --- | --- | --- | --- | --- | --- | --- | --- | --- | --- | --- | --- | --- | --- | --- | --- | --- | --- |
| Nc1ccc2cc3ccccc3cc2c1 [2-aminoanthracene] | – | – | – | – | – | – | – | – | – | – | – | – | – | – | – | – | – | – | – | – | Background lawn (Table 1, positive control, TA98, rat liver S9, 2.5 μg/plate, in the TMMK, TEMK and MEAB runs): 1; Background lawn (Table 2 summary, positive control, TA98, rat liver S9, 2 5 μg/plate, in the TMMK, TEMK and MEAB runs): 1; Individual plate counts, revertants per plate (positive control, TA98, rat liver S9, 2.5 μg/plate, plates 1-3, in the TMMK, TEMK and MEAB runs): 1053 revertants per plate and 1225 revertants per plate and 1226 revertants per plate and 920 revertants per plate and 932 revertants per plate and 1264 revertants per plate and 1032 revertants per plate and 1133 revertants per plate and 1196 revertants per plate; Mean revertants per plate (positive control, TA98, rat liver S9, 2 5 μg/plate, in the TMMK, TEMK and MEAB runs): 968 revertants per plate and 1143 revertants per plate and 1216 revertants per plate |
| CCN(C)c1ccc(C(=O)c2ccc(N(C)CC)cc2)cc1 [MEAB, 4,4′-bis(methylethylamino)benzophenone] | 19 | 21 revertants per plate and 22 revertants per plate and 13 revertants per plate | 21 | 28 revertants per plate and 11 revertants per plate and 25 revertants per plate | 24 | 25 revertants per plate and 24 revertants per plate (2×) | 19 | 18 revertants per plate and 20 revertants per plate (2×) | 24 | 31 revertants per plate and 19 revertants per plate and 21 revertants per plate | 27 | 23 revertants per plate and 21 revertants per plate and 36 revertants per plate | 19 | 14 revertants per plate and 17 revertants per plate and 27 revertants per plate | 24 | 23 revertants per plate (2×) and 27 revertants per plate | 1 | 1 | 1 | 1 sp | Background lawn [21]: 1 mp; Background lawn [22]: 1 mp; Background lawn [23]: 1 hp; Background lawn [24]: 1 hp; Background lawn [25]: 1; Background lawn [26]: 1; Background lawn [27]: 1; Background lawn [28]: 1 sp; Background lawn [29]: 1 mp; Background lawn [30]: 1 mp; Background lawn [31]: 1 hp; Background lawn [32]: 1 hp; Ames Test outcome (mutagenicity): did not cause a positive increase |
| CCN(CC)c1ccc(C(=O)c2ccc(N(CC)CC)cc2)cc1 [TEMK, 4,4′-bis(diethylamino)benzophenone] | 25 | 22 revertants per plate (2×) and 30 revertants per plate | 25 | 30 revertants per plate and 24 revertants per plate and 20 revertants per plate | 18 | 13 revertants per plate and 23 revertants per plate and 19 revertants per plate | 26 | 28 revertants per plate and 26 revertants per plate and 24 revertants per plate | 19 | 20 revertants per plate and 17 revertants per plate and 19 revertants per plate | 24 | 32 revertants per plate and 23 revertants per plate and 17 revertants per plate | 22 | 27 revertants per plate and 15 revertants per plate and 25 revertants per plate | 22 | 27 revertants per plate and 19 revertants per plate (2×) | 1 | 1 | 1 | 1 | Background lawn [21]: 1 sp; Background lawn [22]: 1 mp; Background lawn [23]: 1 mp; Background lawn [24]: 1 mp; Background lawn [25]: 1; Background lawn [26]: 1; Background lawn [27]: 1; Background lawn [28]: 1; Background lawn [29]: 1 sp; Background lawn [30]: 1 mp; Background lawn [31]: 1 mp; Background lawn [32]: 1 mp; Ames Test outcome (mutagenicity): did not cause a positive increase |
